Experiments:
HuM2e antibody 23K12 = type: binding, human
[1] = system: anti-M2 human monoclonal antibody Z3G1; type: binding

Row | Substance | Signal (peptides that bind to 23K21 and 8I10) (HuM2e antibody 23K12) | Signal (peptides that show specific binding to Z3G1) [1] | Signal (peptides that bind to Z3G1) [1]
1 | 488 (SLLTEVETPIHNEWGCRCNDSSD; epitope peptide) [compound 488] | 1112 | 2121 | 
2 | 611 (SLLTEVETRIRNEWGCRCNDSSD; epitope peptide) [compound 611] | 813 | 2159 | 
3 | 297 (CSLLTEVGMCLCTCV; epitope peptide) [compound 297] | 1972 |  | 2649
4 | 381 (SLLQEVETPIRNEWGCRCNDSSD; epitope peptide) [compound 381] | 1399 | 2432 | 
5 | 415 (SLLTEVETPIRNEWGCRCNDRSD; epitope peptide) [compound 415] | 860 |  | 2502
6 | 292 (CSLLTEVGSLLTEC; epitope peptide) [compound 292] | 2094 | 2213 | 
7 | 586 (SLLTEVETPIRNEWGCRCNISSD; epitope peptide) [compound 586] | 851 |  | 2517
8 | 370 (SLLTEVETPIRNEWGERCNDSSD; epitope peptide) [compound 370] | 1474 | 2286 | 
9 | 433 (SLLTEVETPIRNEWGCRCNDSWD; epitope peptide) [compound 433] | 971 |  | 2477
10 | 585 (SLLTEVETPIRLEWGCRCNDSSD; epitope peptide) [compound 585] | 853 | 2468 | 
11 | 681 (SLLTEVETPIRNEWACRCNDSSD; epitope peptide) [compound 681] | 729 | 2431 | 
12 | 477 (SLLTECGSLLCEV; epitope peptide) [compound 477] | 1206 | 2403 | 
13 | 674 (SLLTEVETPIRNEWGCRCTDSSD; epitope peptide) [compound 674] | 733 |  | 2253
14 | 287 (MSLLTEVGMSLLTEV; epitope peptide) [compound 287] | 2267 |  | 2878
15 | 161 (CPIRNEWGSRSNDSSDCSLLTEVETC; epitope peptide) [compound 161] | 1206 | 2759 | 
16 | 294 (MSCLCECGMSLLTEV; epitope peptide) [compound 294] | 2039 |  | 1006
17 | 557 (MSCLTEVGCSLLTEV; epitope peptide) [compound 557] | 899 |  | 2506
18 | 682 (SLLTEVETPIRNEWGSRCNDSSD; epitope peptide) [compound 682] | 729 | 2346 | 
19 | 621 (SLLTEVEFPIRNEWGCRCNDSSD; epitope peptide) [compound 621] | 805 | 2297 | 

Row | Substance | Signal (peptides that bind to 23K21 and 8I10) (HuM2e antibody 23K12) | Signal (peptides that show specific binding to Z3G1) [1] | Signal (peptides that bind to Z3G1) [1]
20 | 509 (SLLTEVETPIYNEWGCRCNDSSD; epitope peptide) [compound 509] | 1049 | 2296 | 
21 | 675 (SLLTEVNTPIRNEWGCRCNDSSD; epitope peptide) [compound 675] | 732 | 2150 | 
22 | 412 (SLLTEVETPIRNEWGCRCNDNSD; epitope peptide) [compound 412] | 708 |  | 2389
23 | 617 (SLLTEVETPIRNSWGCRCNDSSD; epitope peptide) [compound 617] | 807 | 2300 | 
24 | 500 (SCLTEVGSLLTEV; epitope peptide) [compound 500] | 1066 | 1610 | 
25 | 366 (SLLTEVETPIRNEWWCRCNDSSD; epitope peptide) [compound 366] | 1498 | 2406 | 
26 | 516 (SLLTEVETPIRNEWGCRCPDSSD; epitope peptide) [compound 516] | 1024 |  | 2449
27 | 343 (MSLLTEVGMSLLTEC; epitope peptide) [compound 343] | 1630 |  | 2831
28 | 493 (SLLTEVETMIRNEWGCRCNDSSD; epitope peptide) [compound 493] | 1104 | 2320 | 
29 | 594 (SLLTEVQTPIRNEWGCRCNDSSD; epitope peptide) [compound 594] | 838 | 2289 | 
30 | 329 (SLLTEVGSCLCEC; epitope peptide) [compound 329] | 1708 | 2558 | 
31 | 443 (SLLTEVETPIRNEWGCR; epitope peptide) [compound 443] | 864 |  | 2444
32 | 447 (SLLTEVETPIRNEWGCRCNDS; epitope peptide) [compound 447] | 817 |  | 2348
33 | 560 (SLLTEVETPIRNEWGCRCFDSSD; epitope peptide) [compound 560] | 894 |  | 2538
34 | 403 (SLLTEVETPIRNEWGCRCNDCSD; epitope peptide) [compound 403] | 772 |  | 2318
35 | 467 (SLLTEVENPIRNEWGCRCNDSSD; epitope peptide) [compound 467] | 1245 | 2549 | 
36 | 648 (SLLTEVETPIRNEWGKRCNDSSD; epitope peptide) [compound 648] | 762 | 2295 | 
37 | 688 (SLLTEVETPIRNETGCRCNDSSD; epitope peptide) [compound 688] | 724 | 2401 | 
38 | 532 (MSCLTEVGMSLLTEV; epitope peptide) [compound 532] | 968 |  | 2336

Row | Substance | Signal (peptides that bind to 23K21 and 8I10) (HuM2e antibody 23K12) | Signal (peptides that show specific binding to Z3G1) [1] | Signal (peptides that bind to Z3G1) [1]
39 | 602 (SLLTEVETEIRNEWGCRCNDSSD; epitope peptide) [compound 602] | 828 | 2368 | 
40 | 311 (SLLTEVGCLLTEV; epitope peptide) [compound 311] | 1859 | 1924 | 
41 | 351 (SLLCEVGSLLTEC; epitope peptide) [compound 351] | 1564 | 2438 | 
42 | 451 (CSLLTEVGMSLLTEC; epitope peptide) [compound 451] | 1326 |  | 2613
43 | 380 (SLLTEVETPIRNTWGCRCNDSSD; epitope peptide) [compound 380] | 1409 | 2314 | 
44 | 326 (SLLTEVETPIRNEWGCRCNDSSD; epitope peptide) [compound 326] | 1749 | 2476 | 
45 | 213 (CETPIRNEWGSRSNDSCSLLTEVETC; epitope peptide) [compound 213] | 971 | 1997 | 
46 | 476 (CSLLTEVGCSCLCEV; epitope peptide) [compound 476] | 1206 |  | 1680
47 | 375 (SLLTEVETPIRNEWGCRVNDSSD; epitope peptide) [compound 375] | 1446 | 2316 | 
48 | 239 (CSLLTEVETCEVETPIRNEWGSRSNC; epitope peptide) [compound 239] | 821 | 2549 | 
49 | 508 (MSLCTEVGCSLLTEV; epitope peptide) [compound 508] | 1049 |  | 2832
50 | 460 (MSLLTECGMSLLCEV; epitope peptide) [compound 460] | 1268 |  | 2373
51 | 529 (SLLTEVETNIRNEWGCRCNDSSD; epitope peptide) [compound 529] | 978 | 2253 | 
52 | 337 (SLLTEVETPIRNEWGCRCNYSSD; epitope peptide) [compound 337] | 1666 |  | 2475
53 | 689 (SLLTEVETPIRNEWGCRCGDSSD; epitope peptide) [compound 689] | 724 |  | 2343
54 | 699 (SLLTEVETPIRNEWGCRYNDSSD; epitope peptide) [compound 699] | 716 |  | 2169
55 | 612 (SLLTEVETPIRNEWGCRCIDSSD; epitope peptide) [compound 612] | 812 |  | 2450
56 | 401 (SLLTEVETPIRNEWGCRCNWSSD; epitope peptide) [compound 401] | 999 |  | 2556
57 | 414 (SLLTEVETPIRNEWGCRCNDQSD; epitope peptide) [compound 414] | 739 |  | 2349

Reference: patent US8932597B2 (priority 2008, dated 2015)
